Experiments:
[1] = system: Aβ42; experiment: HEK assay: Aβ42 secreted to cell medium, Meso Scale Discovery electrochemiluminescence; format: cell-based; conditions: Homo sapiens, HEK293; HEK cell line stably expressing APPswe; 4-6 hours incubation with test compound; read-out: pIC50 Aβ42 HEK assay (converted)
Description: Compounds were diluted in 100% DMSO and stored at […] prior to use. Human Embryonic Kidney (HEK) cell line stably expressing APP with the Swedish mutation (APPswe) was cultured using Dulbecco's Modified Eagles medium (DMEM) supplied with […] glucose, Na-pyruvate and GlutaMAX, 10% Foetal bovine serum, 100 U/mL penicillin-streptomycin (PEST), 1× non-essential amino acids (NEAA), […] Hepes, 100 μg/mL Zeocine. Cells at about 80% confluence were washed with PBS, detached from culture flasks using 1× Trypsin/EDTA diluted in PBS, re-suspended in cell media and plated in 384-well poly-d-lysine coated cell culture plates at about 10000-15000 cells/well, in 25 μL cell media. Optionally, cryo-preserved cells (frozen and stored at −140° C. in 90% cell media and 10% DMSO) were thawed, washed and plated as above. Next the cells were incubated for 15-24 h at 37° C. and 5% CO2, after which cell medium was changed. Fresh medium containing test compound diluted ×200 from prepared compound plate was added to the cells before further incubation for 4-6 hours at 37° C. and 5% CO2. After incubation with test compound the amount of Aβ peptides, including Aβ42, Aβ40, Aβ39, Aβ38 and Aβ37, secreted to cell medium was analyzed using the electrochemiluminescence assay technology from Meso Scale Discovery Technology, in combination with specific antibodies raised against the different Aβ peptides. Potential cytotoxic effects of the compounds were assayed by measuring the ATP content (ViaLight) from cell lysate.

[2] = system: Aβ42; experiment: PCN assay: Aβ42 secreted by primary cortical neuronal cells, ELISA; format: cell-based; conditions: primary cortical neuronal cells from 16-day mouse embryos; 16-20 hours incubation with test compound; read-out: pIC50 Aβ42 PCN assay (converted)
Description: Compounds were diluted in 100% DMSO and stored at […] prior to use. Primary cortical neuronal cells (PCN) were isolated from 16-day mouse embryos and cultured in Ham's F12 media containing 10% Foetal bovine serum, 10 mM Hepes, 2 mM L-glutamine and 100 U/mL Penicillin-Streptomycin. 150000-250000 cells/well, in 200 μL cell media were seeded onto 96-well poly-D-Lysine coated plates. After incubation at 37° C., 5% CO2 for five days, the media was exchanged for fresh medium containing test compound diluted ×100, before further incubation for 16-20 hours at 37° C. and 5% CO2. After incubation with test compound the amount of […] secreted to cell medium was analyzed using the solid phase sandwich Enzyme-Linked-Immuno-Sorbent Assay (ELISA)-kit from Invitrogen for detection of mouse βAmyloid 1-42. Potential cytotoxic effects of the compounds were assayed by measuring the ATP content (Via Light) from cell lysate.

`COc1cc(Nc2nc(COCC(F)(F)F)cc(N(C)Cc3ccccc3)n2)ccc1-n1cnc(C)c1` [Example 25, N^4-Benzyl-N^2-(3-methoxy-4-(4-methyl-1H-imidazol-1-yl)phenyl)-N^4-methyl-6-((2,2,2-trifluoroethoxy)methyl)pyrimidine-2,4-diamine] was tested, and the IC50 [1] was 25.1 nM and the IC50 [2] was 50.1 nM.
In the case of `COc1cc(Nc2nc(COCC(F)(F)F)cc(N3CCC(F)(F)CC3)n2)ccc1-n1cnc(C)c1` [Example 26, 4-(4,4-Difluoropiperidin-1-yl)-N-(3-methoxy-4-(4-methyl-1H-imidazol-1-yl)phenyl)-6-((2,2,2-trifluoroethoxy)methyl)pyrimidin-2-amine], the IC50 [1] is reported as 50.1 nM and the IC50 [2] is reported as 20 nM.
Compound `COCc1cc(C(C)(C)O)nc(Nc2ccc(-n3cnc(C)c3)c(OC)c2)n1` [Example 27, 2-(2-(3-Methoxy-4-(4-methyl-1H-imidazol-1-yl)phenylamino)-6-(methoxymethyl)pyrimidin-4-yl)propan-2-ol] has an IC50 [1] of 158 nM and an IC50 [2] of 126 nM.
`COc1cc(Nc2nc(COCC(F)(F)F)cc(C(O)C3CC3)n2)ccc1-n1cnc(C)c1` (stereo not drawn) [Example 28, Cyclopropyl(2-(3-methoxy-4-(4-methyl-1H-imidazol-1-yl)phenylamino)-6-((2,2,2-trifluoroethoxy)methyl)pyrimidin-4-yl)methanol] was tested, and the IC50 [1] was 39.8 nM and the IC50 [2] was 100 nM.
For `COc1cc(Nc2nc(COCC3CC3)cc(C(C)(C)O)n2)ccc1-n1cnc(C)c1` [Example 29, 2-(6-((Cyclopropylmethoxy)methyl)-2-(3-methoxy-4-(4-methyl-1H-imidazol-1-yl)phenylamino)pyrimidin-4-yl)propan-2-ol], the IC50 [1] was 39.8 nM and the IC50 [2] was 63.1 nM.
For `CNc1cc(COCC2CC2)nc(Nc2ccc(-n3cnc(C)c3)c(OC)c2)n1` [Example 30, 6-((Cyclopropylmethoxy)methyl)-N2-(3-methoxy-4-(4-methyl-1H-imidazol-1-yl)phenyl)-N4-methylpyrimidine-2,4-diamine], the IC50 [1] was 39.8 nM and the IC50 [2] was 63.1 nM.
For `COc1cn(-c2ccc(Nc3nc(COCC(F)(F)F)cc(C(C)O)n3)cc2OC)cn1` (stereo not drawn) [Example 31, 1-(2-(3-Methoxy-4-(4-methoxy-1H-imidazol-1-yl)phenylamino)-6-((2,2,2-trifluoroethoxy)-methyl)pyrimidin-4-yl)ethanol], the IC50 [1] was 251 nM and the IC50 [2] was 316 nM.
`COc1cn(-c2ccc(Nc3nc(COCC(F)(F)F)cc(C(C)(C)O)n3)cc2OC)cn1` [Example 32, 2-(2-(3-Methoxy-4-(4-methoxy-1H-imidazol-1-yl)phenylamino)-6-((2,2,2-trifluoroethoxy)-methyl)pyrimidin-4-yl)propan-2-ol] gave an IC50 [1] of 100 nM and an IC50 [2] of 316 nM.
`COc1cc(Nc2nc(COCC(F)(F)F)cc(NCC3CC3)n2)ccc1-n1cnc(C)c1` [Example 33, N^4-(Cyclopropylmethyl)-N^2-(3-methoxy-4-(4-methyl-1H-imidazol-1-yl)phenyl)-6-((2,2,2-trifluoroethoxy)methyl)pyrimidine-2,4-diamine] gave an IC50 [1] of 39.8 nM and an IC50 [2] of 50.1 nM.
`COc1cc(Nc2nc(COCC(F)(F)F)cc(NC3CC3)n2)ccc1-n1cnc(C)c1` [Example 34, N^4-Cyclopropyl-N^2-(3-methoxy-4-(4-methyl-1H-imidazol-1-yl)phenyl)-6-((2,2,2-trifluoroethoxy)methyl)pyrimidine-2,4-diamine] showed an IC50 [1] of 50.1 nM and an IC50 [2] of 100 nM.
`COc1cc(Nc2nc(COCC(F)(F)F)cc(NC3COC3)n2)ccc1-n1cnc(C)c1` [Example 35, N^2-(3-Methoxy-4-(4-methyl-1H-imidazol-1-yl)phenyl)-N^4-(oxetan-3-yl)-6-((2,2,2-trifluoroethoxy)methyl)pyrimidine-2,4-diamine] showed an IC50 [1] of 50.1 nM and an IC50 [2] of 25.1 nM.
Work on `COc1cc(Nc2nc(COCC(F)(F)F)cc(NCC(C)(C)O)n2)ccc1-n1cnc(C)c1` [Example 36, 1-(2-(3-Methoxy-4-(4-methyl-1H-imidazol-1-yl)phenylamino)-6-((2,2,2-trifluoroethoxy)-methyl)pyrimidin-4-ylamino)-2-methylpropan-2-ol] yielded an IC50 [1] of 63.1 nM and an IC50 [2] of 39.8 nM.

— patent publication US9439904B2, “Pyrimidine compounds and their use as gamma secretase modulators” (Acturum Life Science AB, priority 2013, dated 2016)
